Data reported in patent publication US4560703A, “Clavulone derivatives, process for preparing the same, and use of said compounds” (Fujisawa Pharmaceutical Co., Ltd., priority 1982, dated 1985).

Key:
leukemia L-1210 cells = assay: Inhibitory activity on proliferation of leukemia L-1210 cells; type: cell-based, mice; details: Mus musculus, L1210, 96 h, 4 days, read-out: Growth Rate (%) (viable cells, control = 100); for activity at 0.1 µg/mL: 0.1 μg/ml; for activity at 0.2 µg/mL: 0.2 μg/ml; for activity at 0.4 µg/mL: 0.4 μg/ml; for activity at 1 µg/mL: 1.0 μg/ml
Procedure: (§1) Moreover, the anti-tumor activities of the clavulone derivatives (I) were tested by the inhibitory activity on propagation of leukemia L-1210 cells, DBA/MC fibrosarcoma cells, and B-16 melanoma cells in mice and also apothanasia effect of mice implanted with leukemia P388 cells and Ehrlich carcinoma cells as in the following experiments.
The test compounds (clavulone-1, -2 and -3) were each dissolved in ethanol and diluted with a medium (RPMI-1640) in a prescribed concentration. Said RPMI-1640 medium contained 10% by weight of fetal calf serum.
Leukemia L-1210 cells (cell concentration: 1×10^5 cells/ml) were inoculated in the RPMI-1640 medium containing the test compound (0.1 to 4.0 μg/ml) and cultured under the conditions of 5% CO2 in air, saturated humidity and at 37° C. for 4 days.
Immediately after the cultivation, the L-1210 cells were stained with trypan blue. Number of viable cells (i.e. cells which were not stained with trypan blue) was counted, and the number of viable cells was compared with that in the control group (no drug was added). The results are shown in Table 2, wherein the number of viable cells in the control group was counted as 100.

[1] = test system: DBA/MC fibrosarcoma cells; assay: Inhibitory activity on proliferation of DBA/MC fibrosarcoma cells; type: cell-based, mice; details: Mus musculus, 48 hours, read-out: Inhibitory Rate (%); for inhibition at 3 µg/mL: 3.0 μg/ml; for inhibition at 20 µg/mL: 20.0 μg/ml; for inhibition at 30 µg/mL: 30.0 μg/ml
Procedure: as §1
The test compounds (clavulone derivatives) were each dissolved in ethanol and diluted with a phosphate-buffer physiological saline solution and further diluted with an eagle's MEM medium in a prescribed concentration. Said eagle's MEM medium contained 20% by weight of fetal calf serum and 0.4% by weight of lactalubumin hydrolysates.
DBA/MC Fibrosarcoma cells (cell concentration: 2.5×10^4 cells/ml) were floated on the eagle's MEM medium and cultured under the conditions of 5% CO2 in air, saturated humidity and at 37° C. for 24 hours. Thereafter, the medium was replaced with the above test compound-containing medium and then it was cultured under the same conditions for 48 hours.
Immediately after the cultivation, the DBA/MC cells were fised with methanol and stained with Giemsa solution. The stained cells were counted with a microscope, and the number of stained cells was compared with that of the control group (no test compound was added). The inhibitory rate was calculated by the following equation: [formula]

granulation tissue = assay: Inhibitory effect on proliferation of granulation tissue (fertile egg method); type: in vivo, Babcock strain chickens (fertile eggs); details: for inhibitory effect on proliferation of granulation tissue (in words): fertile egg method
Procedure: The anti-inflammatory activity was tested by the inhibitory effect on proliferation of granulation tissue which is one of the tests for determining anti-inflammatory activity as follows:
Fertile eggs of Babcock strain chickens were incubated at 38° C. for 9 days. The shell and shell membrane were then removed according to the method of D'arcy et al (cf. D'arcy, P. F. et al, Brit. J. Pharmac. Chemother., 29, 378 (1967). A sterile filter paper disc (diameter: 9 mm) was implanted on the chorio-allantoic membrane and the opening in the shell was sealed with cellophane tape. The eggs were then reincubated for 4 days and at the end of this period, the filter paper disc with granulation tissue was dissected from the chorio-allantoic membrane and then dried at 60° C. for 12 hours. In order to assess the actual amount of granulation tissue present, the weight of filter paper disc which was used in this experiment was subtracted from the total weight of the disc plus granulation tissue.
The test compound was dissolved in an organic solvent (acetone) and 20 μl of the solution was applied on the each disc. The disc was dried and then used in this test. The mean weight of the granulation tissue in each group was compared with that of the control group which was treated with a vehicle alone.
Clavulone-1, clavulone-2, clavulone-3, clavulone-4 and clavulone-5 were used as the test compounds.

B-16 melanoma cells = assay: Anti-tumor effect on B-16 melanoma in mice; type: in vivo, C57BL/6 female mice; details: local injection
Procedure: C57BL/6 female mice (12 weeks old, weighing 18.4-21.6 g, each group: 10 animals) were used.
The test drug was prepared by dissolving clavulone-2 in ethanol and diluting with a saline solution in a concentration of clavulone-2 of 100 μg/ml.
B-16 melanoma cells were serially passaged in subcutaneously implanted form in C57BL/6 mice. The tumor cells were dissected out from C57BL/6 mice on 16th day after implantation, weighed, and mixed homogeneously with Hank's solution in a ratio of 1:9 by weight.
Tumor cells (2×10^5 cells/0.05 ml/mouse) were implanted subcutaneously. The test drug (clavulone-2, 10 μg/0.1 ml) was injected locally into tumor cell-implanted site for three weeks except the weekend. Control mice were injected with a vehicle (1% ethanol in saline solution) in the same as above.
After 21 days from the implantation of tumor cells, mice were killed by chloroform anethesia, and the tumor masses were removed and weighed. The anti-tumor effect of clavulone-2 was evaluated by means of growth inhibition rate calculated by the following equation:
Growth inhibition rate (%)=(1-T/C)×100
T: Mean tumor weight of mice treated with the test compound-containing solution
C: Mean tumor weight of mice treated with the vehicle solution.

Ehrlich carcinoma cells = assay: Anti-tumor effect in mice implanted with Ehrlich carcinoma cells; type: in vivo, female ICR strain mice; details: for MST / Survivors on 60th day/number of mice in one group / I.L.S. (%): 1st-4th day; for I.L.S. (%): 25 or more = effective
Procedure: Six or twelve female ICR strain mice (6 weeks old, weighing 22.2-26.8 g) were used.
The test drug was prepared by mixing clavulone-2 with gum arabic, suspending the mixture in a sterilized saline solution in a concentration of clavulone-2 of 10, 18 or 25 mg/10 ml.
Ehrlich carcinoma cells were serially passaged in an ascites form in ICR strain mice. The tumor cells were harvested from ICR strain mice on 6th day after inoculation, washed with and resuspended in Hank's solution in a concentration of 5×10^5 cells/ml.
Tumor cells (1×10^5 cells/0.2 ml/mouse) were implanted intraperitoneally. The test drug (clavulone-2, 10 ml/kg) was injected intraperitoneally once a day from first to 4th day after the implantation of tumor cells. Control mice were injected with a saline solution in the same as above.
The anti-tumor effect of clavulone-2 was evaluated by means of I.L.S. (%) which was calculated by the following equation: [formula]

leukemia P388 cells = assay: Apothanasia effect in mice implanted with leukemia P388 cells; type: in vivo, BDFI male mice; details: intraperitoneal, once a day, 1st-4th and 7th-11th day
Procedure: Clavulone-2 was mixed with gum arabic in the ratio of 1.6:1 by weight and was mixed with a physiological saline solution in a prescribed concentration to give a test compound solution.
BDFI male mice (5 weeks old, weighing 22.0-24.4 g, 6 animals per group) were used.
Each mice was inoculated intraperitoneally with leukemia P388 cells (cell concentration: 1×10^7 cells/ml) in 0.2 ml Hank's solution. A solution of a test compound in a physiological saline solution was injected intraperitoneally once a day from the first day to 4th day and also from 7th day to 11th day after inoculation of the tumor cells. The control group was given with a vehicle (a physiological saline solution) alone in the same way.
The apothanasia effect of the test compound was estimated by comparing mean survival time between the medicated group and the control group by the following equation: [formula]

[2] = 10 μg/0.1 ml, three weeks except weekend, 21 days

| Structure (SMILES) | activity at 0.1 µg/mL (leukemia L-1210 cells) | activity at 0.4 µg/mL (leukemia L-1210 cells) | activity at 1 µg/mL (leukemia L-1210 cells) | inhibition at 3 µg/mL [1] | inhibition at 20 µg/mL [1] | Inhibitory rate (%) (granulation tissue; Dose 30, on filter paper disc) | Inhibitory rate (%) (granulation tissue; Dose 100, on filter paper disc) | inhibitory effect on proliferation of granulation tissue (in words) (granulation tissue) | other results |
| --- | --- | --- | --- | --- | --- | --- | --- | --- | --- |
| CCCCC/C=C\CC1(OC(C)=O)C=CC(=O)/C1=C/C=C/C(CCC(=O)OC)OC(C)=O (centres unmarked) [Clavulone-2] | 61.5% | 16.9% | 0% | 0% | 100% | 10.1% | 21.0% | showed the inhibitory effect on proliferation of granulation tissue | activity at 0.2 µg/mL (leukemia L-1210 cells): 55.4%; Growth inhibition rate (%) (B-16 melanoma cells; [2]): 73%; Mean tumor weight (g; ± S.E.) (B-16 melanoma cells; [2]): 0.882 ± 0.388 g; number of survivors 21th day after implantation of tumor cells (B-16 melanoma cells; 10 μg/0.1 ml, group of 10 animals): 10; MST (Ehrlich carcinoma cells; 10 mg/kg, intraperitoneal): 26.5 days; Survivors on 60th day/number of mice in one group (Ehrlich carcinoma cells; 10 mg/kg, intraperitoneal): 2/6; I.L.S. (%) (Ehrlich carcinoma cells; 10 mg/kg, intraperitoneal): 23%; animals survived 60 days after implantation of tumor cells (Ehrlich carcinoma cells; 18 mg/10 ml/kg): 50%; MST (Ehrlich carcinoma cells; 18 mg/kg, intraperitoneal): 50.0 days; Survivors on 60th day/number of mice in one group (Ehrlich carcinoma cells; 18 mg/kg, intraperitoneal): 3/6; I.L.S. (%) (Ehrlich carcinoma cells; 18 mg/kg, intraperitoneal): 133%; activity against Ehrlich ascites tumor in vivo (in words) (Ehrlich carcinoma cells; intraperitoneal): high activity against Ehrlich ascites tumor in vivo; Apothanasia effect (%) (leukemia P388 cells; 4.0 mg/kg): 130%; Apothanasia effect (%) (leukemia P388 cells; 8.0 mg/kg): 130% |
| CCCCCCCCC1CCC(=O)C1CCCC(CCC(=O)OC)OC(C)=O (centres unmarked) [Clavulone-13] | – | – | – | 0% | – | – | – | – | inhibition at 30 µg/mL [1]: 100% |
| CCCCC/C=C\CC1(OC(C)=O)C=CC(=O)/C1=C\C=C\C(CCC(=O)OC)OC(C)=O (centres unmarked) [Clavulone-3] | 87.5% | 17.2% | 0% | 0% | 100% | 26.1% | 31.0% | showed the inhibitory effect on proliferation of granulation tissue | activity at 0.2 µg/mL (leukemia L-1210 cells): 52% |
| CCCCC/C=C\CC1(OC(C)=O)C=CC(=O)/C1=C/C=C\C(CCC(=O)OC)OC(C)=O (centres unmarked) [Clavulone-1] | 100% | 24.7% | 0% | 50% | 100% | 15.8% | 30.4% | showed the inhibitory effect on proliferation of granulation tissue | – |
| COC(=O)CCC(/C=C/C=C1/C(=O)C=CC1(C/C=C\CCCCCOC(C)=O)OC(C)=O)OC(C)=O (centres unmarked) [Clavulone-4] | – | – | – | 0% | 100% | 18.3% | 34.2% | showed the inhibitory effect on proliferation of granulation tissue | – |
| COC(=O)CCC(/C=C/C=C1\C(=O)C=CC1(C/C=C\CCCCCOC(C)=O)OC(C)=O)OC(C)=O (centres unmarked) [Clavulone-5] | – | – | – | 0% | 100% | 18.2% | 31.6% | showed the inhibitory effect on proliferation of granulation tissue | – |
| COC(=O)CCC(/C=C\C=C1\C(=O)C=CC1(C/C=C\CCCCCOC(C)=O)OC(C)=O)OC(C)=O (centres unmarked) [Clavulone-6] | – | – | – | 90% | 100% | – | – | – | inhibition at 30 µg/mL [1]: 100%; Growth inhibition rate (%) (B-16 melanoma cells; [2]): 73%; growth of B-16 melanoma in mice (in words) (B-16 melanoma cells; 21 days): regressed significantly |
